US8933019B2, “Antiviral cell-penetrating peptides” (priority 2008, dated 2015)
Where two headings read alike, the source gives them in different places. Bridge positions count the residues as written; N and C are the ends. Square brackets hold non-standard residues; d marks the D form. Peptide text beside a SMILES is read from it. S5 = C=CCCC[C@](C)(N)C(=O)O

Tests used:
[1] = Cytotoxicity, XTT method, PBMC; type: cell-based; details: human
Description: (§1) Cytotoxicity of peptides in MT-2 cells and PBMC was measured by the XTT [(sodium 3′-(1-(phenylamino)-carbonyl)-3,4-tetrazolium-bis(4-methoxy-6-nitro) bezenesulfonic acid hydrate)] method as previously described (Jiang et al., 2004). Briefly, for MT-2 cells, 100 μl of a peptide at graded concentrations was added to an equal volume of cells (1×10^5 cells/ml) in 96-well plates followed by incubation at 37° C. for 4 days, which ran parallel to the neutralization assay in MT-2 (except medium was added instead of virus). In the case of PBMC, 5×10^5 cells/ml were used and the cytotoxicity was measured after 7 days. After addition of XTT (PolySciences, Inc.), the soluble intracellular formazan was quantitated colorimetrically at 450 nm 4 hr later with a reference at 620 nm. The percent of cytotoxicity and the CC50 values were calculated as above (Table 2 and Table 3).

[2] = tested on: HIV-1 AZT-R; details: read-out: IC50 (μM ± SD), HIV-1 AZT-R; RT-resistant isolate, subtype B, MT-2, coreceptor X4
Description: (§2) The inhibitory activity of NYAD-201, and related stapled peptides on infection by laboratory-adapted HIV-1 strains was determined as previously described (Jiang et al. J Exp. Med 174:1557-1563, 1991) with minor modifications. Azidothymidine (AZT) was used as a positive control in the infectivity assays. In brief, 1×10^4 MT-2 cells were infected with HIV-1 at 100 TCID50 (50% tissue culture infective dose) (0.01 MOI [multiplicity of infection]) in 200 μl RPMI 1640 medium containing 10% FBS in the presence or absence of peptides at graded concentrations overnight. The culture supernatants were then removed and fresh media containing freshly prepared test peptide were added. On the fourth day post-infection, 100 μl of culture supernatants were collected from each well, mixed with equal volume of 5% Triton X-100 and tested for p24 antigen by ELISA.
(§3) In addition, NYAD-201, NYAD-202 and NYAD-203 were also tested using several laboratory-adapted and primary isolates in MT-2 cells and PBMC (peripheral blood mononuclear cells), respectively.

[3] = tested on: HIV-1 SF2; details: read-out: IC50 (μM ± SD), HIV-1 SF2; laboratory strain, subtype B, MT-2, coreceptor R5X4
Description: as §2, §3

[4] = tested on: HIV-1 IIIB
Description: as §2, §3

[5] = tested on: HIV-1RF/L-323-12-3; details: read-out: IC50 (μM ± SD), HIV-1RF/L-323-12-3; PR-resistant isolate, subtype B, MT-2, coreceptor X4
Description: as §2, §3

[6] = tested on: HIV-1 MN; details: read-out: IC50 (μM ± SD), HIV-1 MN; laboratory strain, subtype B, MT-2, coreceptor X4
Description: as §2, §3

[7] = tested on: HIV-1 RF; details: read-out: IC50 (μM ± SD), HIV-1 RF; laboratory strain, subtype B, MT-2, coreceptor X4
Description: as §2, §3

[8] = tested on: HIV-1 98CN009; assay: Inhibition of primary HIV-1 isolate, p24 ELISA, PBMC; type: cell-based; details: subtype C, coreceptor R5, read-out: IC50 (μM ± SD), HIV-1 98CN009
Description: (§4) The inhibitory activity of peptides on infection by primary HIV-1 isolates was determined as previously described (Jiang et al., Antimicrob. Agents Chemother. 48:4349-4359, 2004). Peripheral blood mononuclear cells (PBMCs) were isolated from the blood of healthy donors at the New York Blood Center by standard density gradient centrifugation using Histopaque-1077 (Sigma-Aldrich). The cells were cultured at 37° C. for 2 hr. Nonadherent cells were collected and resuspended at 5×10^6 cells/ml RPMI-1640 medium containing 10% FBS, 5 μg/ml PHA, and 100 U/ml IL-2 (Sigma-Aldrich), followed by incubation at 37° C. for 3 days. The PHA-stimulated cells (5×10^4 cells/well) were infected with primary HIV-1 isolates at 500 TCID50 (0.01 MOI) in the absence or presence of peptide inhibitor at graded concentrations. Culture media were changed every 3 days and replaced with fresh media containing freshly prepared inhibitor. The supernatants were collected 7 days post-infection and tested for p24 antigen by ELISA (FIG. 6). The percent inhibition of p24 production, IC50 and IC90 values were calculated by the GraphPad Prism software (GraphPad Software Inc.).
(§5) NYAD-201, NYAD-202 and NYAD-203 were also tested against a set of primary HIV-1 isolates in PBMC representing mostly group M and one from group O with diverse coreceptor usage. […] The inhibitory activities of the peptides against this diverse range of primary isolates were similar, indicating its effectiveness against a wide range of HIV-1 isolates.

[9] = tested on: HIV-1 BCF02; assay: as above; type: cell-based; details: (Group 0), coreceptor R5, read-out: IC50 (μM ± SD), HIV-1 BCF02
Description: as §4, §5

[10] = tested on: HIV-1 93IN101; assay: as above; type: cell-based; details: subtype C, coreceptor R5, read-out: IC50 (μM ± SD), HIV-1 93IN101
Description: as §4, §5

[11] = tested on: HIV-1 93RW024; assay: as above; type: cell-based; details: subtype A, coreceptor R5X4, read-out: IC50 (μM ± SD), HIV-1 93RW024
Description: as §4, §5

[12] = tested on: HIV-1 92US657; assay: as above; type: cell-based; details: subtype B, coreceptor R5, read-out: IC50 (μM ± SD), HIV-1 92US657
Description: as §4, §5

[13] = tested on: HIV-1 CMU02; assay: as above; type: cell-based; details: subtype EA, coreceptor X4, read-out: IC50 (μM ± SD), HIV-1 CMU02
Description: as §4, §5

[14] = tested on: HIV-1 RU570; assay: as above; type: cell-based; details: subtype G, coreceptor R5, read-out: IC50 (μM ± SD), HIV-1 RU570
Description: as §4, §5

[15] = tested on: HIV-1 93BR020; assay: as above; type: cell-based; details: subtype F, coreceptor R5X4, read-out: IC50 (μM ± SD), HIV-1 93BR020
Description: as §4, §5

[16] = tested on: HIV-1 92UG029; assay: as above; type: cell-based; details: subtype A, coreceptor X4, read-out: IC50 (μM ± SD), HIV-1 92UG029
Description: as §4, §5

[17] = tested on: Jurkat cells; assay: Cytotoxicity, LDH leakage, Jurkat cells; type: cell-based; details: 30 min, 2 hr and 4 hr of exposure
Description: (§6) Cytotoxicity was also evaluated in Jurkat cells using a Promega LDH leakage detection kit. Jurkat cells were plated at 10^4 cells/well in a volume of 200 μl. The test was performed after 30 min, 2 hr and 4 hr of exposure to the NYAD-201, NYAD-202 and NYAD-203 compounds.

[18] = Cytotoxicity, XTT method, MT-2 cells; type: cell-based, human; details: human, read-out: CC50 (μM) ± SD, cytotoxicity in MT-2 cells
Description: as §1

[19] = Solubility, observation in the Jurkat cytotoxicity test; type: physicochemical
Description: as §6

[20] = tested on: HIV-1 BaL; type: cell-based; details: laboratory strain, subtype B, PBMC, coreceptor R5; read-out: IC50 (μM ± SD), HIV-1 BaL
Description: as §4
(§7) In addition, NYAD-201, NYAD-202 and NYAD-203 were also tested using several laboratory-adapted and primary isolates in MT-2 cells and PBMC (peripheral blood mononuclear cells), respectively. The inhibition of p24 production in MT-2 cells by NYAD-201 and its analogs were measured over a range of concentrations and the concentration required to inhibit 50% (IC50) of the p24 production was calculated. […] NYAD-201 and its analogs inhibited the laboratory strains with low μM potency (IC50˜2-8 μM), and both R5- and X4-tropic viruses were inhibited with similar potency.

[21] = tested on: HIV-1 89.6; type: cell-based; details: laboratory strain, subtype B, PBMC, coreceptor R5X4; read-out: IC50 (μM ± SD), HIV-1 89.6
Description: as §4, §7

Q: With `CSCC[C@@H]1NC(=O)[C@H](Cc2c[nH]c3ccccc23)NC(=O)[C@@](C)(NC(=O)[C@H](CCCCN)NC(=O)[C@@H](NC(=O)[C@H](C)NC(=O)[C@H](CCC(N)=O)NC(=O)[C@H](C)N)C(C)C)CCCC=CCCC[C@@](C)(C(=O)N[C@H](C(=O)N[C@@H](CC(C)C)C(=O)N[C@@H](CC(C)C)C(=O)N[C@H](C(=O)N[C@@H](C)C(N)=O)C(C)C)[C@@H](C)O)NC(=O)[C@H]([C@@H](C)O)NC1=O` [NYAD-202, AQAVKXWMTXTLLVA] (H-AQAVK[S5]WMT[S5]TLLVA-NH2; staple 6-10) as the molecule, how does the CC50 at 7 days [1] read?
A: > 116 µM

Q: And the IC50 [2]?
A: 4.53 ± 1.19 µM

Q: What about the IC50 [3] of the same molecule?
A: 4.48 ± 0.84 µM

Q: What about the IC50 ([4]; read-out: IC50 (μM ± SD), HIV-1 IIIB, laboratory strain, subtype B, MT-2, coreceptor X4) of the same molecule?
A: 2.36 ± 0.33 µM

Q: What about the IC50 ([4]; read-out: IC50 (μM) ± SD, antiviral activity against HIV-1 IIIB, MT-2 cells, p24 production, fourth day post-infection) of the same molecule?
A: 2.36 ± 0.33 µM

Q: And the IC50 [5]?
A: 3.5 ± 0.6 µM

Q: And the IC50 [6]?
A: 2.47 ± 0.71 µM

Q: And the IC50 [7]?
A: 2.64 ± 0.39 µM

Q: And the IC50 [8]?
A: 4.08 ± 0.92 µM

Q: What about the IC50 [9] of the same molecule?
A: 6.2 ± 1.2 µM

Q: What about the IC50 [10] of the same molecule?
A: 5.53 ± 0.39 µM

Q: And the IC50 [11]?
A: 3.71 ± 0.19 µM

Q: And the IC50 [12]?
A: 3.61 ± 0.57 µM

Q: What about the IC50 [13] of the same molecule?
A: 4.2 ± 0.01 µM

Q: And the IC50 [14]?
A: 6.34 ± 2.22 µM

Q: What about the IC50 [15] of the same molecule?
A: 2.51 ± 0.43 µM

Q: What about the IC50 [16] of the same molecule?
A: 3.97 ± 0.47 µM

Q: What about the “Cytotoxicity in Jurkat cells (LDH leakage)” value [17] of the same molecule?
A: did not demonstrate toxicity

Q: And the CC50 at 4 days [18]?
A: 30.2 ± 4.32 µM

Q: What about the Solubility [19] of the same molecule?
A: not very soluble

Q: What about the IC50 [20] of the same molecule?
A: 2.23 ± 0.44 µM

Q: And the IC50 [21]?
A: 3.47 ± 0.22 µM
